What is called IC50 is the concentration that gives 50% inhibition. As usually defined, the inhibition is the drop in the measured response relative to a control, in per cent.

The target in one test is T1, ALDH3A1 (Homo sapiens, UniProt P30838).
T1 sequence (P30838 1-453): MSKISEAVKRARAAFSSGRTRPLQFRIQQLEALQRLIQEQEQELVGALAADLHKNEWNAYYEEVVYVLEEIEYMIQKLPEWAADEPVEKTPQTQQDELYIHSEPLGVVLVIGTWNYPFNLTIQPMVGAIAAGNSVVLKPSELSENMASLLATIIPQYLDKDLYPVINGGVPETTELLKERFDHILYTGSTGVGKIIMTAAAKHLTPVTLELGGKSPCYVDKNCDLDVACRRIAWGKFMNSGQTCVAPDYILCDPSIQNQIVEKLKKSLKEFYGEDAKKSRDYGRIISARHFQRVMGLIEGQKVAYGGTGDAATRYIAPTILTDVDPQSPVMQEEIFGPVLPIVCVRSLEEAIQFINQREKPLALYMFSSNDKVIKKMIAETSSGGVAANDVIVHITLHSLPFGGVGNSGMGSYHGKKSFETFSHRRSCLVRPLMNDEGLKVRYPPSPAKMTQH
Kind of test: ALDH3A1 dehydrogenase activity. It is filed as biochemical. The following applies: read-out: IC50 ALDH3A1; 300 μM benzaldehyde, 300 μM NADP+, pH 7.5.

In a further test the target is T2, ALDH1L1 (rat) (Rattus norvegicus, UniProt P28037).
T2 sequence (P28037 1-902): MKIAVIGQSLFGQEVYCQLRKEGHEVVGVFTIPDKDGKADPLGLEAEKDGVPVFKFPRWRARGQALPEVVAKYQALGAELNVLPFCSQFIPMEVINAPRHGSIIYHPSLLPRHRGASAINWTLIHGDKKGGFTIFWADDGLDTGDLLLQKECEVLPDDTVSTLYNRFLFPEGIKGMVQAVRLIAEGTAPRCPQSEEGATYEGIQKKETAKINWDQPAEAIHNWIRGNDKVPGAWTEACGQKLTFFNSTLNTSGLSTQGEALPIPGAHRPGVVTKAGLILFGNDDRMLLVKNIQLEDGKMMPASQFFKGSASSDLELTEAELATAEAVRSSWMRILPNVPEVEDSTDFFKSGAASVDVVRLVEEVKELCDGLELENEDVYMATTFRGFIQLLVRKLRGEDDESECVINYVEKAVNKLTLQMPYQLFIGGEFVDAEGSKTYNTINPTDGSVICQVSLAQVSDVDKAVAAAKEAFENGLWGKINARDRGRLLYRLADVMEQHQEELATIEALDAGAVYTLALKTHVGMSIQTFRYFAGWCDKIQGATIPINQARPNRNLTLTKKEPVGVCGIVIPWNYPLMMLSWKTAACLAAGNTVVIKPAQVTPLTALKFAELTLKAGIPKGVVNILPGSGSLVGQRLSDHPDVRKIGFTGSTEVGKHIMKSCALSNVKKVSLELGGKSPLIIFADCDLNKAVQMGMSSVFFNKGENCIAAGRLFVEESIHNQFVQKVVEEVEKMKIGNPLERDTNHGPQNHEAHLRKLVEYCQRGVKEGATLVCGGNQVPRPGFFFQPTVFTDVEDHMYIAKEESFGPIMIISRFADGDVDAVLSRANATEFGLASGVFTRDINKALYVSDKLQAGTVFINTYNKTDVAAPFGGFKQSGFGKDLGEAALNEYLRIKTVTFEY
Briefly: ALDH1L1 dehydrogenase activity, NADPH formation at 340 nm. It is filed as biochemical. The following applies: read-out: IC50 ALDH1L1 (rat); 4 mM propionaldehyde, 500 μM NADP+.

For test [1], the target named is T3, ALDH2 (Homo sapiens, UniProt P05091).
T3 sequence (P05091 18-517): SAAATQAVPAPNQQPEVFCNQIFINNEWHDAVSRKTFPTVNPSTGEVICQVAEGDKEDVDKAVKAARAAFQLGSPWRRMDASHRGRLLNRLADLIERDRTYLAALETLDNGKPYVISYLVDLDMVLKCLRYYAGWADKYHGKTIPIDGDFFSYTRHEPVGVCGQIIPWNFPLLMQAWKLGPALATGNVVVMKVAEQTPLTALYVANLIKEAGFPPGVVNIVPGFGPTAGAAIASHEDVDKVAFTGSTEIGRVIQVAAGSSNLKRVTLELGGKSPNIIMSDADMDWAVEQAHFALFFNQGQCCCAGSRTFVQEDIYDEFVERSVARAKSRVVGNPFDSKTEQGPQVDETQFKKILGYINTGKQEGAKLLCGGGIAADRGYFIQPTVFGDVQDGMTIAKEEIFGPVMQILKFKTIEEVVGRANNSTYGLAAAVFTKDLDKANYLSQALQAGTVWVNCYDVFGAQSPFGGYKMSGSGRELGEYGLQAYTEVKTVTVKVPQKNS
The following applies: 1 mM propionaldehyde.

The target in test [2] is T4, ALDH1A1 (Homo sapiens, UniProt P00352).
T4 sequence (P00352 1-501): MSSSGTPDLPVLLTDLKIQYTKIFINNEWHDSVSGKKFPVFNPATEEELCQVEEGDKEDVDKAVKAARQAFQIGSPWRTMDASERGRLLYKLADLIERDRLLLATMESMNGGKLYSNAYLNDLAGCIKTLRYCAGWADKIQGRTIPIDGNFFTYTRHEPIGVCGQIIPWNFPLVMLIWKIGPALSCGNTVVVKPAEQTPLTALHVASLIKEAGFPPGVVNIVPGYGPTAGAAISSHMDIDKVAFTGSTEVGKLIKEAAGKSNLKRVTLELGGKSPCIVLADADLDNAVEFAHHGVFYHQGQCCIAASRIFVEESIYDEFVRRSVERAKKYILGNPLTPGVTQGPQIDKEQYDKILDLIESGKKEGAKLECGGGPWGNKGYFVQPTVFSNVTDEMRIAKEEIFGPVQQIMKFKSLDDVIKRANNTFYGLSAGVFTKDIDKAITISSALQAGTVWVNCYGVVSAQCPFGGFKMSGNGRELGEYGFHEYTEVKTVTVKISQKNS
Briefly: ALDH1A1 dehydrogenase activity, NADH formation at 340 nm. It is filed as biochemical. The following applies: for IC50: read-out: IC50 ALDH1A1, 100 μM propionaldehyde, 200 μM NAD+, 1% DMSO, pH 7.5, 25 °C; for inhibition at 10 µM: read-out: Inhibition of ALDH1A1 at 10 μM.

The target of test [3] is T3, ALDH2. Kind of test: ALDH2 dehydrogenase activity, NADH formation at 340 nm. The following applies: for Emax: read-out: Max inhibition ALDH2. It is filed as biochemical.
The target of the next test is T5, ALDH1A3 (Homo sapiens, UniProt P47895).
T5 sequence (P47895 1-512): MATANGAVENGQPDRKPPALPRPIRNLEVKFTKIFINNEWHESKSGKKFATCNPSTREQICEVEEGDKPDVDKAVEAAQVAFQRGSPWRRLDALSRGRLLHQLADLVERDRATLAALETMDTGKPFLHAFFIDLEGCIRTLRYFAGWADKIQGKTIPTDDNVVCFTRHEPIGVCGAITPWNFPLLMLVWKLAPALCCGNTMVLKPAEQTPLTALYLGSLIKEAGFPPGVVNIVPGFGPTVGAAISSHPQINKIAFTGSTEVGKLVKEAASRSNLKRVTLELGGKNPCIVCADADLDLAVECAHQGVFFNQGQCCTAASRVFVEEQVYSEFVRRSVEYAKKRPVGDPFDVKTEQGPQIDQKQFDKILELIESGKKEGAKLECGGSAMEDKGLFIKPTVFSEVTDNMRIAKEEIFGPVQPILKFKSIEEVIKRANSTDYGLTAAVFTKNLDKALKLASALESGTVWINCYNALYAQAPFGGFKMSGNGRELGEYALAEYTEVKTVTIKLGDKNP
The following applies: read-out: IC50 ALDH1A3; 100 μM propionaldehyde, 200 μM NAD+, 1% DMSO, pH 7.5, 25 °C.

For test [4], the target named is T4, ALDH1A1. The following applies: for Mode of inhibition of ALDH1A1 versus varied NAD+: 1 mM propionaldehyde.
Another test deals with T6, ALDH1B1 (Homo sapiens, UniProt P30837).
T6 sequence (P30837 18-517): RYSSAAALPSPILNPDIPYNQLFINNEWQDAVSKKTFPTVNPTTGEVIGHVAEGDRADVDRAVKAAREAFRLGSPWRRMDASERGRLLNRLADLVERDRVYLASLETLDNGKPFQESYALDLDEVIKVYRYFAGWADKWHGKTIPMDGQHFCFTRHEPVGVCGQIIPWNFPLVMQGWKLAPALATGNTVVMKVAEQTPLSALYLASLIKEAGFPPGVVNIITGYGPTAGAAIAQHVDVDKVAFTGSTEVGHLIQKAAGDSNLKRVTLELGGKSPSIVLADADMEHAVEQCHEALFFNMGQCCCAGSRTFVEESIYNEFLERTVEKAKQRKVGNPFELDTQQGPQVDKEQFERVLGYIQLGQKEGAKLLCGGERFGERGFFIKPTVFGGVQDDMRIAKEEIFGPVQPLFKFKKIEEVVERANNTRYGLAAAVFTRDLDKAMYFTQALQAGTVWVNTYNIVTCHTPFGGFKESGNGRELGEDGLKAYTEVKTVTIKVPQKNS
The following applies: read-out: IC50 ALDH1B1; 200 μM propionaldehyde, 500 μM NAD+, 25 °C.

The target in the next test is T7, ALDH1A2 (Homo sapiens, UniProt O94788).
T7 sequence (O94788 1-518): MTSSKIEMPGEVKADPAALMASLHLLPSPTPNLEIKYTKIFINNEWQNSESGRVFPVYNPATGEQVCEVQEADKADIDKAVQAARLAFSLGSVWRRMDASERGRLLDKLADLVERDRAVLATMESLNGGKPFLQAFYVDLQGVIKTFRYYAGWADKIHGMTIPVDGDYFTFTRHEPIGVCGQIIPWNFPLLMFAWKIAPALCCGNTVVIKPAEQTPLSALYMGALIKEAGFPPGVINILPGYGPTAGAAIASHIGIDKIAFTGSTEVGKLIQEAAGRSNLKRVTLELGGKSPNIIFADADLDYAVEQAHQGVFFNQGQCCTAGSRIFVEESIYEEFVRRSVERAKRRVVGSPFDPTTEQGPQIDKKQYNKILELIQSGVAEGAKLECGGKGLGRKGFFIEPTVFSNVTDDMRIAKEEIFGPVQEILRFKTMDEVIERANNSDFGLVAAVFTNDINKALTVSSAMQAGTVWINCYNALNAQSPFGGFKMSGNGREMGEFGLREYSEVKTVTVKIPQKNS
The following applies: read-out: IC50 ALDH1A2; 100 μM propionaldehyde, 200 μM NAD+, 1% DMSO, pH 7.5, 25 °C.

Molecules are shown by their SMILES.

`CCCc1c(C)c2cc3c(C)coc3cc2oc1=O` [Compound 1]: the IC50 at ALDH3A1 and on ALDH1L1 (rat) was above 100 µM in each case.
Regarding `CCCc1c(C)c2cc3c(C)c(C)oc3cc2oc1=O` [Compound 2], the IC50 on ALDH3A1 and at ALDH1L1 (rat) was above 100 µM each time. At ALDH2 [1], the “Mode of inhibition of ALDH2 versus varied NAD+” value is “competitive”.
With `CCCc1cc(=O)oc2cc3oc(C)c(C)c3cc12` [Compound 7], the IC50 at ALDH3A1 and on ALDH1A1 [2] was above 100 µM in each case.
`Cc1oc2cc3oc(=O)c4ccccc4c3cc2c1C` [Compound 9]: the IC50 at ALDH3A1 and at ALDH1A1 [2] was above 100 µM throughout. For the same molecule, the Emax at ALDH2 [3] was 50 to 60%.
For `Cc1oc2cc3oc(=O)c4c(c3cc2c1C)CCCC4` [Compound 10], the IC50 at ALDH3A1 and at ALDH1A3 was above 100 µM in each case.
Regarding `Cc1oc2cc3oc(=O)c4c(c3cc2c1C)CCC4` [Compound 11], the IC50 at ALDH3A1 is above 100 µM.
Regarding `Cc1oc2cc3oc(=O)c(CCC(=O)N4CCCCC4)c(C)c3cc2c1C` [Compound 15], on ALDH3A1, the IC50 was above 100 µM. For the same molecule, the “Mode of inhibition of ALDH1A1 versus varied NAD+” value at ALDH1A1 [4] is on record as “uncompetitive”. Also, the inhibition at 10 µM at ALDH1A1 [2] and at ALDH2 [3] (read-out: Inhibition of ALDH2 at 10 μM) was above 90% in each case. For the same molecule, on ALDH2 [1], the “Mode of inhibition of ALDH2 versus varied NAD+” value is on record as “competitive”.
In the case of `Cc1c(C)c2c(cc(C)c3c(C)coc32)oc1=O` [Compound 23], the IC50 on ALDH3A1 and at ALDH1A1 [2] was above 100 µM each time. In addition, at ALDH2 [3], the Emax fell in the range of 50 to 60%.
In the case of `Cc1cc(=O)oc2cc(OCC#N)ccc12` [Compound 30], the “Mode of inhibition of ALDH1A1 versus varied NAD+” value at ALDH1A1 [4] is given as “noncompetitive”. Further, the “Mode of inhibition of ALDH2 versus varied NAD+” value on ALDH2 [1] is on record as “noncompetitive (mixed-type)”.
As for `CCN(CC)c1ccc2c(C)cc(=O)oc2c1` [Compound 32], the IC50 at ALDH3A1, on ALDH1A3 and on ALDH1B1 was above 100 µM in each case. The “Mode of inhibition of ALDH1A1 versus varied acetaldehyde” value at ALDH1A1 [4] (1 mM NAD+, varied acetaldehyde) was “noncompetitive”. The “Mode of inhibition of ALDH1A1 versus varied NAD+” value on ALDH1A1 [4] is “noncompetitive”. Besides, at ALDH1A1 [2], the “Fold selective for ALDH1A1 versus ALDH1A2” value is reported as 10 fold. Moreover, the inhibition at 10 µM on ALDH1A1 [2] is around 85%.
Regarding `Cc1c(Cc2ccccc2)c(=O)oc2cc(OS(C)(=O)=O)ccc12` [Compound 34], the IC50 on ALDH3A1 was above 100 µM.
In the case of `C/C(=N\O)c1cc2cc(Br)ccc2oc1=O` [Compound 36], the IC50 at ALDH1A2, at ALDH3A1, on ALDH1A1 [2] and on ALDH1B1 was above 100 µM each time. In addition, the “Mode of inhibition of ALDH2 versus varied NAD+” value on ALDH2 [1] is listed as “competitively”.
For the molecule `O=c1c(-c2ccc(O)cc2)coc2cc(O[C@@H]3O[C@H](CO)[C@@H](O)[C@H](O)[C@H]3O)ccc12` [Daidzin, daidzin, reference compound], the IC50 at ALDH3A1 and at ALDH1L1 (rat) was above 100 µM each time.

These data come from PMC5765548 (Journal of medicinal chemistry, 2017).
